Results published in ChEMBL document CHEMBL1201862, “PubChem BioAssay data set” (2004).
Active and inactive are the calls of the source.

Key:
[1] = biological target: T1, Corticotropin-releasing factor receptor 2/Corticotropin-releasing factor-binding protein (Homo sapiens, UniProt P24387+Q13324); assay: activators of CRF receptor 2 with binding protein – uHTS hits, confirmation (AID 602473); type: functional; conditions: read-out: EC50_Mean
T1 sequence (Q13324 whole entry): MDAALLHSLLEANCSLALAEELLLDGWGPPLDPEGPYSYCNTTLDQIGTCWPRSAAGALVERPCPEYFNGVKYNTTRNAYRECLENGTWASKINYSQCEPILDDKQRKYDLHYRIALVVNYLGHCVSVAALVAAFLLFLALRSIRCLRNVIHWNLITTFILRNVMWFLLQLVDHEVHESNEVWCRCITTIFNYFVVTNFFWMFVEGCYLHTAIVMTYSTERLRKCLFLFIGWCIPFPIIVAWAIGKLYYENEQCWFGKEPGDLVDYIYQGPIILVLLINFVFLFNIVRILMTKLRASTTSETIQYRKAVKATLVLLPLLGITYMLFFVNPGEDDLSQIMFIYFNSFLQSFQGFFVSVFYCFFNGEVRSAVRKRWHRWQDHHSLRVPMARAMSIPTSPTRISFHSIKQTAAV
T1 sequence (P24387 whole entry): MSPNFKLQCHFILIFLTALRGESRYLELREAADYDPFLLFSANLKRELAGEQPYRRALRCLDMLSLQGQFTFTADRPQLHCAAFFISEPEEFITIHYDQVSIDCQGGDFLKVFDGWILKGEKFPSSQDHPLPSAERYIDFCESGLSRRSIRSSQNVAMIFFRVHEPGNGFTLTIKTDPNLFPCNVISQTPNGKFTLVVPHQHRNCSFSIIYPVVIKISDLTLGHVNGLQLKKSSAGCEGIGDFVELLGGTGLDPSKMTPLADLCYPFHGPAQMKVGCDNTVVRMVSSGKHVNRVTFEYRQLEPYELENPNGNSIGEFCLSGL

[2] = biological target: T1, Corticotropin-releasing factor receptor 2/Corticotropin-releasing factor-binding protein; assay: Dose Response confirmation of uHTS hits for small molecule antagonists of the CRF-binding protein and CRF-R2 receptor complex.; type: functional; conditions: read-out: IC50_Mean
[3] = biological target: T2, Polyadenylate-binding protein 1 (Homo sapiens, UniProt P11940); assay: MLLE domain peptide-binding blockers, IC50 – biochemical, fluorescence polarization, FITC-PAM2 peptide, dose response (AID 602259); type: functional; conditions: read-out: IC50_Mean
T2 sequence (P11940 whole entry, the tested form may be a part): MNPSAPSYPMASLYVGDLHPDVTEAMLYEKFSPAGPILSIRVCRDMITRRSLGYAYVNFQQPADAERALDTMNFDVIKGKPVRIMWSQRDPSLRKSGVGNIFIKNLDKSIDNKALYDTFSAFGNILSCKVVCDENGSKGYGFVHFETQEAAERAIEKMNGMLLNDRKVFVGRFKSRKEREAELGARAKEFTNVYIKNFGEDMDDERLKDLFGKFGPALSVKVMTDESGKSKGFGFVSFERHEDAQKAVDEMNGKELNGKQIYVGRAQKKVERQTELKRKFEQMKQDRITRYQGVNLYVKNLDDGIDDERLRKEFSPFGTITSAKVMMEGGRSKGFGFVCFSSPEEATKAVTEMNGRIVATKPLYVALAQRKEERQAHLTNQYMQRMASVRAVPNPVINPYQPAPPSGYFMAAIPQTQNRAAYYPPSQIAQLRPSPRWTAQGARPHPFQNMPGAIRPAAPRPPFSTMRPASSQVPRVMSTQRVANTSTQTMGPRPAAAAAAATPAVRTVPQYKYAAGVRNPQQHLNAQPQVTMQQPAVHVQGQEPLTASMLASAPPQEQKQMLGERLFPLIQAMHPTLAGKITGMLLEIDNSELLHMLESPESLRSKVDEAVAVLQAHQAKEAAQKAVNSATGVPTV

[4] = biological target: T2, Polyadenylate-binding protein 1; assay: MLLE binding blockers, Cy5 peptide tracer – biochemical, fluorescence polarization, Cy5-PAM2 peptide, secondary, miRNA deadenylation inhibitor project, dose response (AID 602260); type: functional; conditions: read-out: IC50_Mean
[5] = biological target: T3, RNA-binding protein pos-1 (Caenorhabditis elegans, UniProt G5EF15); assay: disruptors of C. elegans POS-1 RNA interaction – biochemical, fluorescence polarization, dose response (AID 1964);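 also: purified POS-1 fused to maltose binding protein made in E. coli; potency of compounds blocking POS-1 binding to fluorescent RNA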
T3 sequence (G5EF15 whole entry): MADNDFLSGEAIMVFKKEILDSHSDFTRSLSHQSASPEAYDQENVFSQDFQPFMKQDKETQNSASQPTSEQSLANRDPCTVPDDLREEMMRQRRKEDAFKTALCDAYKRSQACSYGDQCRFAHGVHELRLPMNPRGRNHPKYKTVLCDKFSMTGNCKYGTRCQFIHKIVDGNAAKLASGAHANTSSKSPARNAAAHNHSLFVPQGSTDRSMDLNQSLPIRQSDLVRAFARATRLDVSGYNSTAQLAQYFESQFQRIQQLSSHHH

[6] = biological target: T4, Zinc finger protein mex-5 (Caenorhabditis elegans, UniProt Q9XUB2); assay: potency of MEX-5 RNA-binding blockers – biochemical, C. elegans, fluorescence polarization, dose response (AID 1960)
T4 sequence (Q9XUB2 whole entry): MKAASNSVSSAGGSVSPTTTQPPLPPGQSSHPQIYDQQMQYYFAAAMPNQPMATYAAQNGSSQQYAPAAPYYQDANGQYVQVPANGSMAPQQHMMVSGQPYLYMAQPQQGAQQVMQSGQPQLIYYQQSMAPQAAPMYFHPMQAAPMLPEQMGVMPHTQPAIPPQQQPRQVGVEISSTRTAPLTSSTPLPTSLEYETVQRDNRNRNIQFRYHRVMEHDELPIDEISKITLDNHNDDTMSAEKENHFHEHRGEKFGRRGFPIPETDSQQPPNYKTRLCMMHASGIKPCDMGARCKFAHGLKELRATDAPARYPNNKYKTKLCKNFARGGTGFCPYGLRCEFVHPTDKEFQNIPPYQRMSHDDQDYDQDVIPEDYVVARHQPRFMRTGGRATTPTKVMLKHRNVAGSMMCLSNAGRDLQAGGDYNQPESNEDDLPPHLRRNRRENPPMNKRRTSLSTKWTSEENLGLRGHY

[7] = Luminescence Cell-Based Dose Confirmation HTS to Identify Inhibitors of Platelet Dense Granule Release. [Related pubchem assays: 1663 (Primary HTS), 1678 (Summary of Project)]; type: functional
[8] = biological target: Luciferin 4-monooxygenase (Photinus pyralis, UniProt P08659); assay: inhibition of purified Photinus pyralis luciferase – biochemical, luminescence, dose response (AID 1891)
Luciferin 4-monooxygenase, sequence (P08659 whole entry): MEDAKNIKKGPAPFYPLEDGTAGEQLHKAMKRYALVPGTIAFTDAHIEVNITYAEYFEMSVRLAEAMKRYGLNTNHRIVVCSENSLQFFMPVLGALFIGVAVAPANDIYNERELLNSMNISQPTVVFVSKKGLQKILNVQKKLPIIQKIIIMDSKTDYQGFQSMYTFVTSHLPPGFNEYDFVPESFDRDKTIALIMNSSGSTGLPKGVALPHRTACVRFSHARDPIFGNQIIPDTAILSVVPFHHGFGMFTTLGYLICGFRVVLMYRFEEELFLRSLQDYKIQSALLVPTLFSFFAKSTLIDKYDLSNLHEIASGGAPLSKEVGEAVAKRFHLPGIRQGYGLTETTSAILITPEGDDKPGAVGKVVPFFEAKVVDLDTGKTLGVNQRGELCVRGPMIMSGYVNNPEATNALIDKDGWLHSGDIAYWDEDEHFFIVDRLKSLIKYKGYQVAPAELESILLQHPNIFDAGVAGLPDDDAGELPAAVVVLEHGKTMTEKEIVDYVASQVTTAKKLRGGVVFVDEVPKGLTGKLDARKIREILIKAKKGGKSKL

Paired box protein Pax-8 = Paired box protein Pax-8 (Homo sapiens, UniProt Q06710); assay: PAX8 transcriptional activity inhibition in RMG-I – RMG-I cells, luciferase, cherry-pick, dose response (AID 687027); type: functional, cell-based;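 also: luciferase reporter driven by Pax8 target thyroperoxidase promoter measured by SteadyGlo luminescence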
Paired box protein Pax-8, sequence (Q06710 whole entry): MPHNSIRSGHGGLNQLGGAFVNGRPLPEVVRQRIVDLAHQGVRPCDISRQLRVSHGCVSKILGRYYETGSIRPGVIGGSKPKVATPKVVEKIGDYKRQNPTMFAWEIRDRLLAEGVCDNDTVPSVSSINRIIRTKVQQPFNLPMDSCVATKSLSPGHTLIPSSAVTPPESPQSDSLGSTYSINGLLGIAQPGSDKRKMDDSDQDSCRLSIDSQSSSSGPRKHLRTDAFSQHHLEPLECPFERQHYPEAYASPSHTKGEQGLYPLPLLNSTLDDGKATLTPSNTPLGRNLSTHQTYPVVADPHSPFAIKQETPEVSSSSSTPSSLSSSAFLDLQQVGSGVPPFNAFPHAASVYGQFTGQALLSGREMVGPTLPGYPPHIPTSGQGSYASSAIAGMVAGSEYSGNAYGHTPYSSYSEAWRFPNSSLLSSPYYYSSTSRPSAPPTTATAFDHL

[9] = reduction of Shn3 3'UTR-driven luciferase in osteoblasts – cell-based, Clone20 osteoblasts, firefly luciferase, cherry-picked, dose response (AID 624132); type: functional;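 also: firefly luciferase luminescence from reporter carrying the Shn3 3'UTR in osteoblasts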
[10] = loss of viability in HepG2 cells – cell-based, CellTiter-Glo, cherry-picked, cytotoxicity control for Shn3 inhibitor project, dose response (AID 624134); type: functional
[11] = non-specific 3'UTR reporter inhibition in Clone20-Shn3RL – cell-based, Renilla luciferase, cherry-picked, counter-screen for Shn3 inhibitor project, dose response (AID 624133); type: functional
Nonstructural protein 1 = Nonstructural protein 1 (Influenza A virus, UniProt Q194T2); type: functional, Influenza A virus (A/California/07/2009(H1N1))
Nonstructural protein 1, sequence (Q194T2 whole entry): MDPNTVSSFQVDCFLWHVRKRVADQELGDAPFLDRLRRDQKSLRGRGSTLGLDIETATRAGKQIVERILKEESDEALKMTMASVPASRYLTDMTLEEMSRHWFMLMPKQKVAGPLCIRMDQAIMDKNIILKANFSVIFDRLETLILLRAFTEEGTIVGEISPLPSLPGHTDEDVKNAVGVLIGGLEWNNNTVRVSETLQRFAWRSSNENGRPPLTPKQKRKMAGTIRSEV

[12] = biological target: T5, Heat shock factor protein 1 (Mus musculus, UniProt P38532); assay: decrease of HSF1-responsive luciferase luminescence – cell-based, NIH3T3, dose retest, confirmation (AID 2382); type: functional;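 also: NIH3T3 fibroblasts with HSF1-driven luciferase reporter stressed by proteasome inhibitor MG132; luminescence from HSF1-driven luciferase expression after 8 hours of MG132 stress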
T5 sequence (P38532 whole entry): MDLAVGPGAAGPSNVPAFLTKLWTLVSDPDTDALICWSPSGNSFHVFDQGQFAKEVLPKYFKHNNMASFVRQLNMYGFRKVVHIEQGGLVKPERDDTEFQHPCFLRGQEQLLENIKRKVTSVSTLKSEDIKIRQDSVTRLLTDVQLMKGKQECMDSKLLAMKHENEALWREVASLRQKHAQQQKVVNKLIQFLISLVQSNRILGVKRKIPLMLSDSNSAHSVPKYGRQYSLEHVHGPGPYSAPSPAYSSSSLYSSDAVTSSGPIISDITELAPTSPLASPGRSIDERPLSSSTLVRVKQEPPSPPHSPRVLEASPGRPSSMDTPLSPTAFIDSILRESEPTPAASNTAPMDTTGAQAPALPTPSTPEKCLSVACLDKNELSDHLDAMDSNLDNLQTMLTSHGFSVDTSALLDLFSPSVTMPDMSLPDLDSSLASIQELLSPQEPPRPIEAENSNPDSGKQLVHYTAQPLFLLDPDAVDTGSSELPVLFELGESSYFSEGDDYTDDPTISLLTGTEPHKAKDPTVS

COC(=O)Cc1ccc(NC(=S)NCCC(C)C)cc1
EC50 [1]: > 53 µM (inactive) | IC50 [2]: > 47.1 µM (inactive)

Clc1ccc2nncn2n1
EC50 [1]: > 53 µM (inactive) | IC50 [2]: > 47.1 µM (inactive)

COCCn1c(=N)c(C(=O)NCc2ccco2)cc2c(=O)n3cc(C)ccc3nc21
IC50 [3]: 16.7 µM (active) | EC50 [1]: > 53 µM (inactive) | IC50 [2]: > 47.1 µM (inactive) | IC50 [4]: 33.2 µM (inactive)

COc1cccc(=O)c2c(C)oc(C)c12
EC50 [5]: > 300 µM (not active) | EC50 [6]: > 300 µM (not active)

O=c1[nH]n(-c2ncnc3c2cnn3-c2ccccc2)c(=O)c2ccccc12
EC50 [5]: 11.6 µM (active) | EC50 [6]: 7.26 µM (active)

CNc1nc2c(N)ncnc2n1[C@H]1O[C@@H](CO)[C@H](O)[C@@H]1O
EC50 [7]: 1.36 µM (active) | EC50 [8]: > 112 µM (not active)

C[C@@H]1CCCCO[C@@H](CN(C)Cc2ccc(Cl)c(Cl)c2)[C@H](C)CN([C@@H](C)CO)C(=O)c2cc(NS(=O)(=O)c3ccccc3)ccc2O1
AC50 (Paired box protein Pax-8): 13.4 µM (active)

COc1ccc(CNCCC(c2ccc(OC(C)C)cc2)c2ccccc2OC)cc1OC (centres undefined)
AC50 [9]: 4.35 µM (active) | AC50 [10]: 19.1 µM (active) | AC50 [11]: 5.37 µM (active)

OCCN1CCN(CC(O)COc2ccc(Cl)cc2)CC1 (centres undefined)
EC50 [7]: > 112 µM (not active) | EC50 [8]: > 112 µM (not active)

Cc1cc(C)c2c(CC(=O)Nc3nccs3)coc2c1
EC50 [1]: > 53 µM (inactive) | IC50 [2]: > 47.1 µM (inactive)

OC(c1cc(-c2cccc(Cl)c2)nc2ccccc12)C1CCCCN1 (centres undefined)
AC50 [9]: 10.8 µM (active) | AC50 [10]: 16 µM (active) | AC50 [11]: 15.4 µM (active)

C[C@@H]1CN([C@H](C)CO)C(=O)c2cc(NC(=O)Nc3ccc(F)cc3)ccc2O[C@@H](C)CCCCO[C@H]1CN(C)Cc1ccc(Cl)c(Cl)c1
AC50 (Paired box protein Pax-8): 9.51 µM (active)

O=C1CSC(=S)N1N=Cc1ccccc1O
IC50 (Nonstructural protein 1): 1.75 µM (active)

Cc1cc(NC(=O)CCN2CCN(C/C=C/c3ccccc3)CC2)ccc1Br
AC50 [9]: 10.2 µM (active) | AC50 [10]: > 70 µM (inactive) | AC50 [11]: 15 µM (active)

O=C(CCc1ccccc1)Nc1c(F)cccc1F
EC50 [1]: > 53 µM (inactive) | IC50 [2]: > 47.1 µM (inactive)

Cc1cc(/C=N/NC(=O)c2ccoc2C)cc(C)c1O
EC50 [1]: > 53 µM (inactive) | IC50 [2]: > 47.1 µM (inactive)

O=[N+]([O-])c1ccc(Nc2ccc(N3CCOCC3)cc2)c([N+](=O)[O-])c1
IC50 (Nonstructural protein 1): 71.6 µM (active)

Nc1ncnc(NNC(=O)CNC(=O)c2c(F)cccc2Cl)c1[N+](=O)[O-]
EC50 [5]: 0.548 µM (active) | EC50 [6]: 0.241 µM (active) | EC50 [1]: > 53 µM (inactive) | IC50 [2]: > 47.1 µM (inactive)

C=CCN1C(=O)NC(=O)/C(=C/c2c(CCN(C)C(=O)c3ccccc3)cc3c(c2OC)OCO3)C1=O
EC50 [5]: > 300 µM (not active) | EC50 [6]: > 300 µM (not active)

CCOC(=O)c1c(O)nc2ccccc2c1N1CCCCC1
EC50 [12]: > 195 µM (not active) | EC50 [7]: > 112 µM (not active) | EC50 [8]: > 112 µM (not active)

Cc1ccc2c(CC(=O)N3CCN(S(=O)(=O)c4cccs4)CC3)coc2c1
EC50 [7]: > 112 µM (not active) | EC50 [8]: > 112 µM (not active)

Cc1cccn2c(=O)c3cc(C(=O)NC4CCCC4)c(=N)n(CCc4ccccc4)c3nc12
EC50 [5]: > 300 µM (not active) | EC50 [6]: > 300 µM (not active)

CN1C(=O)C(=Cc2c[nH]c3ccccc23)C(=O)N(C)C1=O
EC50 [5]: 52.9 µM (active) | EC50 [6]: 151 µM (active)

CN(C)c1ccc(C2CC(c3cccc(NS(C)(=O)=O)c3)=NN2C(=O)c2ccccc2)cc1 (centres undefined)
IC50 (Nonstructural protein 1): > 100 µM (active)

O=C(NC1CC1)c1ccc2c(c1)C1C3CCC(C3)C1C(c1ccccc1)N2 (centres undefined)
AC50 (Paired box protein Pax-8): 48.2 µM (active)

CN(C1=C(N2CCCCC2)C(=O)c2ccccc2C1=O)c1ccccc1
IC50 (Nonstructural protein 1): 6.94 µM (active)

S=C(Nc1ccc2c(c1)OCO2)Nc1ccccc1Cl
EC50 [1]: > 53 µM (inactive) | IC50 [2]: > 47.1 µM (inactive)

CCC(Oc1ccccc1)C(=O)Nc1ccccn1 (centres undefined)
EC50 [5]: > 300 µM (not active) | EC50 [6]: > 300 µM (not active)

Cc1nc(Nc2nc(CSc3nc4ccccc4[nH]3)cc(=O)[nH]2)nc2ccccc12
AC50 (Paired box protein Pax-8): 9.16 µM (active)

COc1ccc(NC(=O)C2Cc3c(-c4cccc(C(C)=O)c4)ccnc3O2)cc1OC (centres undefined)
AC50 [9]: 0.799 µM (active) | AC50 [10]: 7.75 µM (active) | AC50 [11]: 4.68 µM (active)

COCc1nnc(NC(=O)CSCc2ccccc2)s1
EC50 [7]: > 112 µM (not active) | EC50 [8]: > 112 µM (not active)

O=C(NCc1ccncc1)c1cc(F)c(F)cc1Cl
EC50 [1]: > 53 µM (inactive) | IC50 [2]: > 47.1 µM (inactive)

O=C1C(NS(=O)(=O)c2cccs2)=C(N2CCN(c3ccccc3)CC2)C(=O)c2ccccc21
IC50 (Nonstructural protein 1): 21.6 µM (active)

COc1ccc(P(=O)(COc2ccc([N+](=O)[O-])cc2)c2ccc(OC)cc2)cc1
EC50 [7]: > 112 µM (not active) | EC50 [8]: > 112 µM (not active)

COc1cc(C2C(C#N)=C(N)Oc3[nH]nc(-c4ccccn4)c32)cc(OC)c1OC (centres undefined)
EC50 [1]: > 53 µM (inactive) | IC50 [2]: > 47.1 µM (inactive)

COc1ccc(NC(=O)/C=C/c2cccc(Br)c2)cn1
EC50 [5]: 16 µM (active) | EC50 [6]: 12.4 µM (active)

Cc1cccc(C)c1N1CCN(C(=O)c2ccc3c(c2)OCO3)CC1
EC50 [1]: > 53 µM (inactive) | IC50 [2]: > 47.1 µM (inactive)
